The values below come from US20080312164A1 (priority 2006, published 2008).

Where two headings read alike, the source gives them in different places. Marks after values point to notes of the source that are not given here.

Assay [1] relates to Du145 cells. Put plainly: Calcein AM cytotoxicity assay, Du145. Conditions: Homo sapiens. The assay is classed as cell-based. From the text:
(§1) Five serial 1:2 dilutions were made with anhydrous DMSO at 100× the final concentration used in the assay.

The subject of assay [2] is Du145 cells. Put plainly: Cell Titer-Glo cytotoxicity assay, Du145. The assay is classed as cell-based. To be noted: Homo sapiens.
Source text: as §1

Assay [3] concerns HCT-116 cells. Kind of assay: Calcein AM cytotoxicity assay, HCT-116. The assay is classed as cell-based. Conditions: Homo sapiens.
Source text: as §1

Assay [4] relates to HCT-116 cells. Put plainly: Cell Titer-Glo cytotoxicity assay, HCT-116. The assay is classed as cell-based. To be noted: Homo sapiens.
Source text: as §1
Background: ATP-based viability assays read luminescence as a measure of living cells.

In assay [5] the test system is Hep3B cells. Kind of assay: Calcein AM cytotoxicity assay, Hep3B. The class given is cell-based. To be noted: Homo sapiens, 72 h.
Source text: as §1

The subject of assay [6] is Hep3B cells. Put plainly: Cell Titer-Glo cytotoxicity assay, Hep3B. The class given is cell-based. Conditions: Homo sapiens, 72 h.
Source text: as §1

Assay [7] has as its system SF-268 cells. Kind of assay: Calcein AM cytotoxicity assay, SF-268. The class given is cell-based. To be noted: Homo sapiens.
Source text: as §1

Assay [8] concerns SF-268 cells. Kind of assay: Cell Titer-Glo cytotoxicity assay, SF-268. The assay is classed as cell-based. Conditions: Homo sapiens.
Source text: as §1

Assay [9] deals with SK-OV-3 cells. Put plainly: Calcein AM cytotoxicity assay, SK-OV-3. The class given is cell-based. Conditions: Homo sapiens.
Source text: as §1

In assay [10] the test system is SK-OV-3 cells. Kind of assay: Cell Titer-Glo cytotoxicity assay, SK-OV-3. The assay is classed as cell-based. Conditions: Homo sapiens.
Source text: as §1

The test system of assay [11] is NCI/ADR RES cells. Kind of assay: Calcein AM cytotoxicity assay, NCI/ADR-RES. To be noted: Homo sapiens, 72 h. The assay is classed as cell-based.
Source text: as §1

The subject of assay [12] is NCI/ADR RES cells. Put plainly: Cell Titer-Glo cytotoxicity assay, NCI/ADR-RES. Conditions: for IC50: Homo sapiens, NCI/ADR-RES, 72 h. The class given is cell-based, human.
Source text: as §1

Assay [13] has as its system NCI-H460 cells. Put plainly: Calcein AM cytotoxicity assay, NCI-H460. The assay is classed as cell-based. Conditions: Homo sapiens.
Source text: as §1

In assay [14] the test system is NCI-H460 cells. Kind of assay: Cell Titer-Glo cytotoxicity assay, NCI-H460. The assay is classed as cell-based, human.
Source text: as §1

The test system of assay [15] is MCF7 cells. Put plainly: Calcein AM cytotoxicity assay, MCF7. The assay is classed as cell-based. Conditions: Homo sapiens.
Source text: as §1

Assay [16] deals with MCF7 cells. Put plainly: Cell Titer-Glo cytotoxicity assay, MCF7. To be noted: Homo sapiens. The assay is classed as cell-based, human.
Source text: as §1

Assay [17] deals with NmuMG mouse mammary normal epithelial cells. Put plainly: Calcein AM cytotoxicity assay, NmuMG. The assay is classed as cell-based. Conditions: Epithelial cell, 72 h.
Source text: as §1

Assay [18] shares this test system. Kind of assay: Cell Titer-Glo cytotoxicity assay, NmuMG. The assay is classed as cell-based. Conditions: for IC50: Mus musculus, Epithelial cell, 72 h.
Source text: as §1

The next assay concerns HT-29 cells. Put plainly: MTT cytotoxicity assay, HT-29. The assay is classed as cell-based. Conditions: Homo sapiens. Background: Formazan colour is commonly taken as a measure of viable cells.
The test system of another assay is human cancer cell lines. Put plainly: Cytotoxicity across the panel of human cancer cell lines (average, high-throughput assays). The assay is classed as cell-based. To be noted: for IC50: read-out: Cancerous Average IC50 / Average IC50 in Cancer Cell Lines.
Source text: as §1

Where [19] appears, read: DU-145, Du145, Calcein AM, 72 h, read-out: IC50.
[20] abbreviates: DU-145, Du145, Cell Titer-Glo, 72 h, read-out: IC50.
Where [21] appears, read: HCT-116, Calcein AM, 72 h, read-out: IC50.
Setting [22] is: HCT-116, Cell Titer-Glo, 72 h, read-out: IC50.
Where [23] appears, read: SF-268, Calcein AM, 72 h, read-out: IC50.
[24] abbreviates: SF-268, Cell Titer-Glo, 72 h, read-out: IC50.
[25] abbreviates: SK-OV-3, Calcein AM, 72 h, read-out: IC50.
Setting [26] is: SK-OV-3, Cell Titer-Glo, 72 h, read-out: IC50.
Where [27] appears, read: NCI-H460, Calcein AM, 72 h, read-out: IC50.
Setting [28] is: Homo sapiens, NCI-H460, Cell Titer-Glo, 72 h, read-out: IC50.
The mark [29] stands for this setting: MCF7, Calcein AM, 72 h, read-out: IC50.
Setting [30] is: MCF7, Cell Titer-Glo, 72 h, read-out: IC50.
Where [31] appears, read: NmuMG, Calcein AM, read-out: IC50.
Setting [32] is: NmuMG, Cell Titer-Glo, read-out: IC50.
Where [33] appears, read: HT-29, MTT, 24 h, read-out: IC50.
The mark [34] stands for this setting: average across eight human cancer cell lines, MTT (HT-29) values excluded.

As for `CCCCc1ccc(N=C=S)cc1` [Compound 21, 1-butyl-4-isothiocyanatobenzene], the IC50 was over 50 µM in the assay with Du145 cells [1] (setting [19]); 48 µM with Du145 cells [2] (setting [20]); over 50 µM in the assay on HCT-116 cells [3] (setting [21]); 19.4 µM in the assay with HCT-116 cells [4] (setting [22]); over 50 µM in the assay on Hep3B cells [5] (Calcein AM, read-out: IC50); over 50 µM in the assay with Hep3B cells [6] (Cell Titer-Glo, read-out: IC50). Also, the IC50 in the assay on SF-268 cells [7] (setting [23]) was 21.5 µM; in the assay on SF-268 cells [8] (setting [24]), 32.1 µM; with SK-OV-3 cells [9] (setting [25]) it was 15.9 µM; with SK-OV-3 cells [10] (setting [26]), 31.4 µM; in the assay on NCI/ADR RES cells [11] (Calcein AM, read-out: IC50), over 50 µM; in the assay with NCI/ADR RES cells [12] (Cell Titer-Glo, read-out: IC50), over 50 µM. Besides, the IC50 in the assay with NCI-H460 cells [13] (setting [27]) is over 50 µM; with NCI-H460 cells [14] (setting [28]), over 50 µM; with NCI-H460 cells [14] (NCI-H460, Cell Titer-Glo, 72 h), “^fNon-inhibitory in Hep3B, NCI/ADR RES, NCI-H460”; in the assay with MCF7 cells [15] (setting [29]), 45.8 µM; in the assay on MCF7 cells [16] (setting [30]), 45.4 µM; in assay [17] (setting [31]), 71.9 µM. Besides, the IC50 is 65.7 µM in assay [18] (setting [32]), over 50 µM in the assay with HT-29 cells (setting [33]) and 35.2 µM in the assay on human cancer cell lines (setting [34]). In the assay with human cancer cell lines (setting [34]), the “Cancerous Average IC50 / Average IC50 in Cancer Cell Lines” value is given as 35.25^f μM.

On to `S=C=NCc1cccnc1` [Compound 22, 3-(isothiocyanatomethyl)pyridine], for which the IC50 is under 1.88 µM in the assay with Du145 cells [1] (DU-145, 72 h); 2.91 µM in the assay with Du145 cells [2] (DU-145, 72 h); 1.26 µM in the assay with HCT-116 cells [3] (HCT-116, 72 h); 2.04 ± 0.21 µM in the assay on HCT-116 cells [4] (HCT-116, 72 h); 3.64 µM in the assay on Hep3B cells [5]; 3 µM in the assay on Hep3B cells [6]. Also, the IC50 in the assay on SF-268 cells [7] (SF-268, 72 h) was 2.68 µM; with SF-268 cells [8] (SF-268, 72 h), 2.46 µM; with SK-OV-3 cells [9] (SK-OV-3, 72 h) it was 2.6 µM; in the assay with SK-OV-3 cells [10] (SK-OV-3, 72 h), 2.21 µM; in the assay on NCI/ADR RES cells [11], 2.27 µM; in the assay with NCI/ADR RES cells [12], 1.18 ± 0.06 µM. For the same molecule, the IC50 was 5.18 µM in the assay on NCI-H460 cells [13] (NCI-H460, 72 h); 4.51 µM in the assay with NCI-H460 cells [14] (Homo sapiens, NCI-H460, 72 h); 2.31 µM in the assay on MCF7 cells [15] (MCF7, 72 h); 2.04 µM with MCF7 cells [16] (MCF7, 72 h); under 12.5 µM in assay [17]; 26 ± 1.15 µM in assay [18]. Also, the IC50 in the assay with HT-29 cells (HT-29, 24 h) was determined as 21.3 µM; with human cancer cell lines (Homo sapiens), 2.54 µM. The “fold more potent than L-sulforaphane” value in the assay with NCI/ADR RES cells [12] (NCI/ADR RES cells) is about 7.5 fold. Further, the “fold increase in potency versus 23” value in the assay on NCI/ADR RES cells [12] (NCI/ADR RES cells, phenyl replaced by 3-pyridine) is recorded as at most 10 fold. For the same molecule, the “fold less potent than L-sulforaphane” value in assay [18] (NmuMG cells) was about 4 fold. The “fold increase in effectiveness relative to L-sulforaphane” value in the assay with human cancer cell lines (potency in NCI/ADR RES and selectivity over NmuMG taken together) is about 30 fold.

Turning to `S=C=NCc1ccccc1` [Compound 23, 1-(isothiocyanatomethyl)benzene], the IC50 in the assay with Du145 cells [1] (setting [19]) is 5.37 µM; in the assay with Du145 cells [2] (setting [20]), 4.64 µM; with HCT-116 cells [3] (setting [21]), 11.5 µM; in the assay on HCT-116 cells [4] (setting [22]), 3.19 µM; in the assay on Hep3B cells [5] (Calcein AM, read-out: IC50) it was 22.5 µM; in the assay on Hep3B cells [6] (Cell Titer-Glo, read-out: IC50), 9.7 ± 0.37 µM. For the same molecule, the IC50 in the assay on SF-268 cells [7] (setting [23]) was 11.5 µM; in the assay on SF-268 cells [8] (setting [24]), 8.27 µM; with SK-OV-3 cells [9] (setting [25]), 7.18 µM; with SK-OV-3 cells [10] (setting [26]), 8.86 µM; with NCI/ADR RES cells [11] (Calcein AM, read-out: IC50), 15.5 µM; in the assay on NCI/ADR RES cells [12] (Cell Titer-Glo, read-out: IC50), 11.5 ± 0.77 µM. For the same molecule, the IC50 in the assay with NCI-H460 cells [13] (setting [27]) was 22.9 µM; in the assay on NCI-H460 cells [14] (setting [28]) it was 14.5 µM; in the assay with MCF7 cells [15] (setting [29]), 16 µM; with MCF7 cells [16] (setting [30]), 10.6 µM; in assay [17] (setting [31]) it was under 12.5 µM; in assay [18] (setting [32]) it was 15.4 µM. Also, the values for the IC50 with HT-29 cells (setting [33]) and with human cancer cell lines (setting [34]) were 31.4 µM and 9.47 µM, respectively. Further, the “fold increase in potency versus fully-saturated 18” value in the assay on human cancer cell lines (average IC50 compared) is over 3 fold.
